Where a name gives a salt, the structure may show the parent alone.
What was measured:
[1] = system: NCI-H292 lung cancer cells; experiment: FDA drug screening, complete media vs cholesterol-free media without statin (TABLE 1); format: cell-based, human
[2] = system: NCI-H292 lung cancer cells; experiment: FDA drug screening, complete media vs cholesterol-free media with simvastatin (TABLE 2); format: cell-based, human; details: for Cholesterol-free media + simvastatin (0.04 μM) / Complete Media: NCI-H292 cells
[3] = NCI-H292 cells, cholesterol-free media without statin, FDA drug library screen
[4] = NCI-H292 cells, complete media, FDA drug library screen
[5] = complete vs cholesterol-free media, >0 enhanced anti-cancer activity, about 0 neutral, <0 antagonist
[6] = FDA drug library screen, cholesterol-free media with simvastatin 0.04 μM
[7] = FDA drug library screen, complete media
[8] = complete media vs cholesterol-free media + simvastatin (0.04 μM), >0 enhanced anti-cancer activity, about 0 neutral, <0 antagonist
[9] = NCI-H292 cells, cholesterol-free media without statin
[10] = complete vs cholesterol-free media, greater than 0 enhanced anti-cancer activity, about 0 neutral, below 0 antagonists
[11] = cholesterol-free media with simvastatin 0.04 μM, cell growth value in FDA drug screen
[12] = complete media, cell growth value in FDA drug screen
[13] = complete media minus cholesterol-free media + simvastatin, >0 enhanced anti-cancer activity, about 0 neutral, <0 antagonist
[14] = Complete minus Cholesterol-free, […]
[15] = cholesterol-free media with simvastatin 0.04 μM, FDA drug library screen (TABLE 2)
[16] = complete media, FDA drug library screen (TABLE 2)
[17] = complete media minus cholesterol-free media + simvastatin (0.04 μM), […]
[18] = NCI-H292 cells, FDA drug library screen, cholesterol-free media without statin
[19] = NCI-H292 cells, FDA drug library screen, complete media
[20] = Complete minus Cholesterol-free, greater than 0 enhanced anti-cancer activity, about 0 neutral, below 0 antagonists
[21] = NCI-H292 cells in cholesterol-free media without statin
[22] = NCI-H292 cells in complete media
[23] = FDA library drug in cholesterol-free media with simvastatin 0.04 μM
[24] = FDA library drug in complete media
[25] = drug in cholesterol-free media with simvastatin 0.04 μM

Q: How did the Cholesterol-free [1, 3] turn out when `CN(C)CCC=C1c2ccccc2CCc2ccccc21` [Amitriptyline (hydrochloride)] was run?
A: 0.8567

Q: And the Complete [1, 4]?
A: 1.344

Q: And the Difference [1, 5]?
A: 0.49

Q: What about the “Cholesterol-free media + simvastatin (0.04 μM)” value [2, 6] of the same compound?
A: 0.9551

Q: And the “Complete Media” value [2, 7]?
A: 0.8184

Q: And the Difference [2, 8]?
A: −0.14

Q: For Sultamicillin (tosylate), which Cholesterol-free [1, 9] is on record?
A: 1.337

Q: And the Complete ([1]; NCI-H292 cells, complete media)?
A: 1.021

Q: And the Difference [1, 10]?
A: −0.32

Q: What about the “Cholesterol-free media + simvastatin (0.04 μM)” value [2, 11] of the same compound?
A: 1.072

Q: And the “Complete Media” value [2, 12]?
A: 1.191

Q: What about the Difference [2, 13] of the same compound?
A: 0.12

Q: Which Difference [1, 14] does the source give for `COc1cc([C@@H]2c3cc4c(cc3[C@H](O)[C@H]3COC(=O)[C@H]23)OCO4)cc(OC)c1OC` [Podofilox] here?
A: −0.01

Q: And the Cholesterol-free [1, 3]?
A: 0.05355

Q: And the Complete [1, 4]?
A: 0.04847

Q: What about the “Cholesterol-free media + simvastatin (0.04 μM)” value [2, 15] of the same compound?
A: 0.1667

Q: What about the “Complete Media” value [2, 16] of the same compound?
A: 0.1215

Q: And the Difference [2, 17]?
A: −0.05

Q: What does the source list for `Cc1ncc([N+](=O)[O-])n1CC(C)O` (centres unmarked) [Secnidazole]?
A: Cholesterol-free [1, 3]: 1.105; Complete [1, 4]: 1.528; Difference [1, 5]: 0.42; Cholesterol-free media + simvastatin (0.04 μM) [2, 15]: 1.474; Complete Media [2, 16]: 1.409; Difference ([2]; complete media minus cholesterol-free media + simvastatin (0.04 μM), >0 enhanced anti-cancer activity, about 0 neutral, <0 antagonist): −0.07

Q: Which Difference ([1]; Complete minus Cholesterol-free, greater than 0 enhanced anti-cancer activity, about 0 neutral, below 0 antagonist) does the source give for `CCCC(=O)O[C@]1(C(=O)COC(=O)CC)CC[C@H]2[C@@H]3CCC4=CC(=O)CC[C@]4(C)[C@H]3[C@@H](O)C[C@@]21C` [Hydrocortisone buteprate] here?
A: −0.17

Q: What about the Cholesterol-free [1, 18] of the same compound?
A: 0.8122

Q: What about the Complete [1, 19] of the same compound?
A: 0.6382

Q: And the “Cholesterol-free media + simvastatin (0.04 μM)” value [2, 11]?
A: 0.6107

Q: What about the “Complete Media” value [2, 12] of the same compound?
A: 0.6538

Q: What about the Difference [2, 13] of the same compound?
A: 0.04

Q: `CN1CCCN=C1/C=C/c1cccc(O)c1.O=C(O)c1cc2ccccc2c(Cc2c(O)c(C(=O)O)cc3ccccc23)c1O` [Oxantel (pamoate)] was tested. Which Difference [1, 20] did it give?
A: −0.51

Q: And the Cholesterol-free [1, 21]?
A: 1.526

Q: And the Complete [1, 22]?
A: 1.019

Q: What about the “Cholesterol-free media + simvastatin (0.04 μM)” value [2, 6] of the same compound?
A: 0.9072

Q: And the “Complete Media” value [2, 7]?
A: 1.051

Q: And the Difference [2, 13]?
A: 0.14

Q: For `C[C@]12CC[C@@H]3c4ccc(O)cc4CC[C@H]3[C@@H]1CCC2=O` [Estrone], which Cholesterol-free [1, 9] is on record?
A: 1.426

Q: And the Complete ([1]; NCI-H292 cells, complete media)?
A: 1.109

Q: What about the Difference [1, 10] of the same compound?
A: −0.32

Q: What about the “Cholesterol-free media + simvastatin (0.04 μM)” value [2, 23] of the same compound?
A: 1.409

Q: What about the “Complete Media” value [2, 24] of the same compound?
A: 1.088

Q: And the Difference [2, 8]?
A: −0.32

Q: `Nc1nc2ncc(CNc3ccc(C(=O)N[C@@H](CCC(=O)O)C(=O)O)cc3)nc2c(=O)[nH]1` [Folic acid] was tested. Which Cholesterol-free [1, 9] did it give?
A: 1.731

Q: What about the Complete ([1]; NCI-H292 cells, complete media) of the same compound?
A: 1.312

Q: And the Difference [1, 10]?
A: −0.42

Q: And the “Cholesterol-free media + simvastatin (0.04 μM)” value [2, 25]?
A: 1.118

Q: And the “Complete Media” value ([2]; drug in complete media)?
A: 0.9443

Q: And the Difference [2, 8]?
A: −0.17

Q: Which results are given for `NCCC[C@H](NC(=O)[C@@H]1CCCN1C(=O)[C@@H]1CSSC[C@H](N)C(=O)N[C@@H](Cc2ccc(O)cc2)C(=O)N[C@@H](Cc2ccccc2)C(=O)N[C@@H](CCC(N)=O)C(=O)N[C@@H](CC(N)=O)C(=O)N1)C(=O)NCC(N)=O` [Ornipressin]?
A: Difference [1, 14]: 0.03; Cholesterol-free [1, 3]: 1.024; Complete [1, 4]: 1.051; Cholesterol-free media + simvastatin (0.04 μM) [2, 23]: 1.553; Complete Media [2, 24]: 0.7895; Difference ([2]; complete media vs cholesterol-free media + simvastatin (0.04 μM), […]): −0.76

Q: How did the Difference [1, 14] turn out when `Cl.N=C(N)NCCC[C@H](N)C(=O)O` [L-Arginine (hydrochloride)] was run?
A: −0.16

Q: And the Cholesterol-free [1, 18]?
A: 1.414

Q: And the Complete [1, 19]?
A: 1.256

Q: And the “Cholesterol-free media + simvastatin (0.04 μM)” value [2, 15]?
A: 0.9293

Q: What about the “Complete Media” value [2, 16] of the same compound?
A: 0.9241

Q: What about the Difference [2, 17] of the same compound?
A: −0.01

Q: What does the source list for `O=C1c2ccccc2C(=O)C1c1ccccc1` [Phenindione]?
A: Cholesterol-free [1, 3]: 0.7484; Difference [1, 5]: 0.40; Cholesterol-free media + simvastatin (0.04 μM) [2, 25]: 1.567; Complete Media ([2]; drug in complete media): 1.395; Difference [2, 8]: −0.17

Q: How did the Difference [1, 20] turn out when `C[C@H]1CN(C[C@H](Cc2ccccc2)C(=O)NCC(=O)O)CC[C@@]1(C)c1cccc(O)c1` [Alvimopan (dihydrate)] was run?
A: −1.02

Q: And the Cholesterol-free [1, 21]?
A: 1.958

Q: What about the Complete [1, 22] of the same compound?
A: 0.9383

Q: What about the “Cholesterol-free media + simvastatin (0.04 μM)” value [2, 23] of the same compound?
A: 1.255

Q: What about the “Complete Media” value [2, 24] of the same compound?
A: 0.9864

Q: What about the Difference [2, 8] of the same compound?
A: −0.27

Q: With `Nc1ccn([C@H]2CC[C@@H](CO)O2)c(=O)n1` [Zalcitabine] as the compound, how does the Difference ([1]; Complete minus Cholesterol-free, >0 enhanced anti-cancer activity, about 0 neutral, <0 antagonist) read?
A: −0.22

Q: What about the Cholesterol-free [1, 9] of the same compound?
A: 1.156

Q: What about the Complete ([1]; NCI-H292 cells, complete media) of the same compound?
A: 0.9405

Q: What about the “Cholesterol-free media + simvastatin (0.04 μM)” value [2, 11] of the same compound?
A: 1.825

Q: And the “Complete Media” value [2, 12]?
A: 1.89

Q: What about the Difference [2, 13] of the same compound?
A: 0.06

Q: What does the source list for `CCOC(=O)c1c(CSc2ccccc2)n(C)c2cc(Br)c(O)c(CN(C)C)c12` [Umifenovir (hydrochloride)]?
A: Cholesterol-free [1, 9]: 1.088; Complete ([1]; NCI-H292 cells, complete media): 0.7625; Difference [1, 10]: −0.33; Cholesterol-free media + simvastatin (0.04 μM) [2, 6]: 0.9009; Complete Media [2, 7]: 1.225; Difference [2, 13]: 0.32
